Test results taken from US9770423B2, “Modulation sAPP, sAAPα and BDNF levels in individuals diagnosed with FXS and ASD” (Indiana University Research and Technology Corp., priority 2012, dated 2017).
Several values for one entry are separate records, joined by “and”; a condition that tells them apart may be missing. Identical values can stand only once.

What was measured:
[1] = test system: adult males with FXS; details: of 3 adult males with FXS, cited from earlier work
[2] = test system: BDNF; test: plasma BDNF by ELISA in the FXS open-label trial; type: in vivo, human
Method: Blood samples for BDNF were drawn at Screen and at Week 10 of the study. BDNF analysis was done blind to patient assignment (pre- or post-treatment). Approximately 4 ml of blood was collected in EDTA containing tubes. Within 30 minutes of collection, the blood was centrifuged at 1000 g at 2-8° C. for 15 minutes. Plasma was collected and an additional centrifugation of the collected plasma at 1000 g at 2-8° C. for 10 minutes was done to completely remove platelets from the samples. All plasma samples were stored at −80° C. BDNF assays were done at the same time with all samples in triplicate. To determine plasma BDNF, a sensitive ELISA based method was used using human BDNF ELISA kit from R&D systems (Minneapolis, Minn.; USA) that is validated for detection of BDNF present in human plasma (Grassi-Oliveira et al., 2008). The amount (pg/ml) of BDNF present in the plasma samples was determined from the pg value obtained in the standard curve using a known amount of pure human BDNF, which was run at the same time with subjects' samples.
All data were recorded in IBM SPSS Statistics Professional for statistical analysis. Potential differences in pre- and post-treatment mean values of all outcome measures employed were calculated using paired t-tests. […] Effect sizes were calculated by taking the mean change from baseline to endpoint divided by the standard deviation at baseline.

[3] = test system: youths symptomatic for an autistic disorder; details: mean dose 1,110 mg/day, 10 to 30 weeks; cited from earlier work
[4] = test system: sAPP; test: plasma sAPP total by ELISA pre- and post-acamprosate; type: in vivo, human; details: individual patients 1-6, titled as diagnosed with FXS; after treatment
[5] = test system: NMDA glutamate receptor; details: animal studies; cited from earlier work
[6] = test system: extracellular dopamine levels in the nucleus accumbens; details: rats; dependent on glycine receptor activation; cited from earlier work

CC(=O)NCCCS(=O)(=O)O.[Ca] [acamprosate, Calcium Acetylhomotaurine]
subjects with non-treatment limiting gastrointestinal distress (emesis and/or nausea) [1]: Two subjects | subjects with significant positive clinical response as measured by the CGI-I ([1]; mean dose 1,221 mg/day, mean duration 21.3 weeks): 3 | change in plasma BDNF from screen to Week 10 ([2]; 10 subjects with FXS): All subjects experienced an increase | mean subject plasma BDNF after treatment ([2]; Week 10, 10 subjects with FXS, screen 790.4±1350.4 pg/mL, p=0.01): 1007.6 ± 1493.2 pg/mL | youths judged treatment responders [3]: five of six | sAPP (total)-CP, Week 12 [4]: 5.561 ng/mL and 25.16 ng/mL and 12.84 ng/mL and 8.077 ng/mL and 56.8 ng/mL and 7.547 ng/mL | action at the NMDA glutamate receptor [5]: bind and act as an antagonist | extracellular dopamine levels in the nucleus accumbens [6]: elevates extracellular dopamine levels
